Test results published in patent US20230159510A1, “NOVEL PRMT5 INHIBITORS” (AMGEN INC., priority 2020, published 2023).
Where two headings read alike, the source gives them in different places.

Columns and labels:
HCT116 MTAP null cells = assay: HCT116 proliferation assay, MTAP null cells (CellTiter-Glo, 6 days); format: cell-based; details: 144 h, read-out: Protif_ HCT116-MTAP null IC50
Method in brief: (§1)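 Both lines grow in RPMI 1640 containing 10% fetal bovine serum. After an overnight rest, they receive compound at up to 1 or 10 µM in threefold serial dilutions, with vehicle wells holding DMSO only.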

HCT116 WT cells = assay: HCT116 proliferation assay, WT cells (CellTiter-Glo, 6 days); format: cell-based; details: Homo sapiens, HCT-116, 144 h, read-out: Prolif_HCT116-WT IC50
Method in brief: as §1

PRMT5/MEP50 = PRMT5/MEP50 (Homo sapiens, UniProt O14744); assay: MTase-Glo methyl transferase assay, Method A (Histone H4 peptide, 1 µM MTA, 24 h pre-incubation); format: biochemical; design: made in house; details: read-out: PRMT5 MTase Glo Ki (nM, Meth. A)
Sequence of PRMT5/MEP50 (O14744 whole entry): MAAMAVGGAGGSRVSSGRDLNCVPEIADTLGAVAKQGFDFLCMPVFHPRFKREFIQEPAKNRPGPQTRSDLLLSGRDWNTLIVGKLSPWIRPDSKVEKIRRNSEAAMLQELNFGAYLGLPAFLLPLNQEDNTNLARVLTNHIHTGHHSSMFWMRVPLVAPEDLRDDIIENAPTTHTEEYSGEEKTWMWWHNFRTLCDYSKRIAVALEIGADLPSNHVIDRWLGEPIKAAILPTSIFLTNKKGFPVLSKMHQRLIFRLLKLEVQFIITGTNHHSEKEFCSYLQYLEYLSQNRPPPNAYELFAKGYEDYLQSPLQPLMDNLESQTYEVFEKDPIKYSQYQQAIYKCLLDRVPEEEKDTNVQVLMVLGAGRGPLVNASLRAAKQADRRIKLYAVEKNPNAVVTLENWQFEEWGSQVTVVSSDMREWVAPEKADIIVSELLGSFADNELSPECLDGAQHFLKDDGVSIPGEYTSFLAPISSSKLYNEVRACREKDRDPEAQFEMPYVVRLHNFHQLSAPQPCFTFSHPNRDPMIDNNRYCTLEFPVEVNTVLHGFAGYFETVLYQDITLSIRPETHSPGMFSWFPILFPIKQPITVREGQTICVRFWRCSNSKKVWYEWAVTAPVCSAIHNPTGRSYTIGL
Sequence of PRMT5/MEP50 (Q9BQA1 whole entry partner): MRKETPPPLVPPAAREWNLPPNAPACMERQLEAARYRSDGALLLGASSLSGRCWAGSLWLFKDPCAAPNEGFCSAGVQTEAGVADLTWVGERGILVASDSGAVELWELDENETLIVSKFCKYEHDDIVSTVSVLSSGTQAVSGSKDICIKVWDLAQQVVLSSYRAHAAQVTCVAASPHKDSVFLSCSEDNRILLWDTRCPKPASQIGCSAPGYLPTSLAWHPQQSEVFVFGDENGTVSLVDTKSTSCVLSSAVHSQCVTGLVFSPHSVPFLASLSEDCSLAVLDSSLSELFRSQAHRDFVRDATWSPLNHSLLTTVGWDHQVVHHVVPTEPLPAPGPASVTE
Method in brief: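 PRMT5/MEP50 (10 nM) pre-incubated 24 h with compound, 5 µM SAM and 1 µM MTA, then reaction started with 1 µM Histone H4 (1-21) peptide and run 2 h at room temperature in Tris pH 8.0 buffer. SAH formed detected by MTase-Glo luminescence; IC50 and KI from dose-response curves.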

Row | IC50 (HCT116 MTAP null cells; HCT116-MTAP null) [nM] | IC50 (HCT116 WT cells) [nM] | Ki (PRMT5/MEP50) [nM] | Structure (SMILES) | IC50 (HCT116 MTAP null cells) [nM]
1 | 342 | 8210 | 0.22 | Cc1cc2cc(C(=O)N(Cc3ncccc3F)[C@H](C)c3ccc(C(F)(F)F)cn3)ccc2nc1N [Example 393, 2-amino-N-((3-fluoro-2-pyridinyl)methyl)-3-methyl-N-((1R)-1-(5-(trifluoromethyl)-2-pyridinyl)ethyl)-6-quinolinecarboxamide] | –
2 | 182 | 4100 | 0.11 | Cc1cc2cc(C(=O)N(Cc3ccc(C(F)(F)F)cn3)Cc3ncc(Cl)cc3F)ccc2nc1N [Example 304, 2-amino-N-((5-chloro-3-fluoro-2-pyridinyl)methyl)-3-methyl-N-((5-(trifluoromethyl)-2-pyridinyl)methyl)-6-quinolinecarboxamide] | –
3 | 168 | 6200 | 0.17 | C[C@H](c1ncccn1)N(Cc1ccc(C(F)(F)F)cn1)C(=O)c1ccc2nc(N)c(Cl)cc2c1 [Example 347, 2-amino-3-chloro-N-((1R)-1-(2-pyrimidinyl)ethyl)-N-((5-(trifluoromethyl)-2-pyridinyl)methyl)-6-quinolinecarboxamide] | –
4 | 110 | 4180 | 0.12 | Cc1cc2cc(C(=O)N(Cc3ccc(C#N)cn3)[C@H](C)c3ncccc3F)ccc2nc1N [Example 542, (R)-2-amino-N-((5-cyanopyridin-2-yl)methyl)-N-(1-(3-fluoropyridin-2-yl)ethyl)-3-methylquinoline-6-carboxamide] | –
5 | 173 | 3210 | 0.07 | Cc1cc2cc(C(=O)N(Cc3ccc(C#N)cn3)[C@H](C)c3ncc(F)cc3F)ccc2nc1N [Example 431, 2-amino-N-((5-cyano-2-pyridinyl)methyl)-N-((1R)-1-(3,5-difluoro-2-pyridinyl)ethyl)-3-methyl-6-quinolinecarboxamide] | –
6 | 159 | 5010 | 0.36 | Cc1cc2cc(C(=O)N(Cc3ccc(C(F)(F)F)cn3)[C@@H]3CCCc4ccncc43)ccc2nc1N [Example 323, 2-amino-3-methyl-N-((8R)-5,6,7,8-tetrahydro-8-isoquinolinyl)-N-((5-(trifluoromethyl)-2-pyridinyl)methyl)-6-quinolinecarboxamide] | –
7 | 116 | 3220 | 2.1 | Cc1cc2cc(C(=O)N(Cc3ccc(C(F)(F)F)cn3)[C@@H]3CCCC[C@H]3O)ccc2nc1N [Example 361, 2-amino-N-((1R,2R)-2-hydroxycyclohexyl)-3-methyl-N-((5-(trifluoromethyl)-2-pyridinyl)methyl)-6-quinolinecarboxamide] | –
8 | 187 | 4590 | 0.52 | CC[C@H](c1ncccn1)N(Cc1ccc(C(F)F)cn1)C(=O)c1cnc2nc(N)c(Br)cc2c1 (single isomer, unassigned) [Example 500] | –
9 | 49 | 1360 | 0.05 | Cc1cc2cc(C(=O)N(Cc3ccc(Cl)cn3)[C@H](C)c3ncccn3)ccc2nc1N [Example 504, 2-amino-N-((5-chloro-2-pyridinyl)methyl)-3-methyl-N-((1R)-1-(2-pyrimidinyl)ethyl)-6-quinolinecarboxamide] | –
10 | 34 | 853 | < 0.1 | Cc1cc2cc(C(=O)N(Cc3ccc(Cl)c(C)n3)[C@H](C)c3ncccn3)ccc2nc1N (single isomer, unassigned) [Example 468] | –
11 | 88 | 3270 | 0.04 | Cc1cc2cc(C(=O)N(Cc3ncc(Br)cc3C)[C@H](C)c3ncccn3)ccc2nc1N (single isomer, unassigned) [Example 474] | –
12 | 198 | 3720 | 0.14 | Cc1cc2cc(C(=O)N(Cc3ccc(C(F)(F)F)cn3)CC(C)C)c(Cl)cc2nc1N [Example 436, 2-amino-7-chloro-3-methyl-N-(2-methylpropyl)-N-((5-(trifluoromethyl)-2-pyridinyl)methyl)-6-quinolinecarboxamide] | –
13 | 490 | > 10000 | 0.13 | COC(=O)c1ccc(CN(Cc2ncccc2F)C(=O)c2ccc3nc(N)c(C)cc3c2)nc1 [Example 331, methyl 6-((((2-amino-3-methyl-6-quinolinyl)carbonyl)((3-fluoro-2-pyridinyl)methyl)amino)methyl)-3-pyridinecarboxylate] | –
14 | 24 | 110 | 0.57 | Cc1cc(N)nc2ccc(C(=O)N(Cc3ccc(C(F)(F)F)cn3)[C@H](C)c3ncccn3)cc12 [Example 432, 2-amino-4-methyl-N-((1R)-1-(2-pyrimidinyl)ethyl)-N-((5-(trifluoromethyl)-2-pyridinyl)methyl)-6-quinolinecarboxamide] | –
15 | 701 | 5960 | 0.51 | Cc1cc2cc(C(=O)N(Cc3ccc(C(F)(F)F)cn3)Cc3ncccc3F)cnc2nc1N [Example 537, 7-amino-N-((3-fluoropyridin-2-yl)methyl)-6-methyl-N-((5-(trifluoromethyl)pyridin-2-yl)methyl)-1,8-naphthyridine-3-carboxamide] | –
16 | 69 | 1390 | 0.01 | Cc1cc2cc(C(=O)N(Cc3ccc(C(F)(F)F)cn3)Cc3cccc4[nH]ncc34)ccc2nc1N [Example 371, 2-amino-N-(1H-indazol-4-ylmethyl)-3-methyl-N-((5-(trifluoromethyl)-2-pyridinyl)methyl)-6-quinolinecarboxamide] | –
17 | 454 | > 10000 | 0.36 | Cc1cc2cc(C(=O)N(Cc3cnc(C#N)cn3)[C@H](C)c3ncccn3)ccc2nc1N [Example 553, 2-amino-N-((5-cyano-2-pyrazinyl)methyl)-3-methyl-N-((1R)-1-(2-pyrimidinyl)ethyl)-6-quinolinecarboxamide] | –
18 | 58 | 899 | 0.14 | Cc1cc2cc(C(=O)N(Cc3ccc(C(F)(F)F)cn3)[C@H](C)c3ncc(F)cn3)ccc2nc1N (single isomer, unassigned) [Example 528] | –
19 | 872 | > 10000 | 1.22 | Cc1cc2cc(C(=O)N(Cc3cccnc3)Cc3ccc(C(F)(F)F)cn3)ccc2nc1N [Example 301, 2-amino-3-methyl-N-(3-pyridinylmethyl)-N-((5-(trifluoromethyl)-2-pyridinyl)methyl)-6-quinolinecarboxamide] | –
20 | 76 | 1350 | 0.29 | Cc1cc2cc(C(=O)N(Cc3ccc(C(F)(F)F)cn3)[C@H](C)c3ncccn3)c(Cl)cc2nc1N [Example 437, 2-amino-7-chloro-3-methyl-N-((1R)-1-(2-pyrimidinyl)ethyl)-N-((5-(trifluoromethyl)-2-pyridinyl)methyl)-6-quinolinecarboxamide] | –
21 | 380 | 2170 | 0.68 | N#Cc1ccc(CN(C(=O)c2cnc3nc(N)c(Br)cc3c2)[C@@H](c2ncccn2)C2CC2)nc1 [Example 425, (R)-7-amino-6-bromo-N-((5-cyanopyridin-2-yl)methyl)-N-(cyclopropyl(pyrimidin-2-yl)methyl)-1,8-naphthyridine-3-carboxamide] | –
22 | 154 | 4020 | 0.33 | Cc1nc([C@@H](C)N(Cc2ccc(C(F)F)cn2)C(=O)c2ccc3nc(N)c(C)cc3c2)no1 (single isomer, unassigned) [Example 534] | –
23 | 125 | 3820 | 0.07 | Cc1cc2cc(C(=O)N(Cc3ccc(N4CCOCC4)nn3)[C@H](C)c3ncccn3)ccc2nc1N [Example 555, (R)-2-amino-3-methyl-N-((6-morpholinopyridazin-3-yl)methyl)-N-(1-(pyrimidin-2-yl)ethyl)quinoline-6-carboxamide] | –
24 | 62 | 1700 | 0.13 | Cc1cc2cc(C(=O)N(Cc3ccc(C#N)cn3)[C@@H]3CCOc4cccnc43)ccc2nc1N (single isomer, unassigned) [Example 519] | –
25 | 35 | 801 | 0.02 | Cc1cc2cc(C(=O)N(Cc3ccc(C(F)(F)F)cn3)Cc3ccnc4[nH]ccc34)ccc2nc1N [Example 356, 2-amino-3-methyl-N-(1H-pyrrolo[2,3-b]pyridin-4-ylmethyl)-N-((5-(trifluoromethyl)-2-pyridinyl)methyl)-6-quinolinecarboxamide] | –
26 | 64 | 2130 | 0.87 | CCOc1ccc(CN(C(=O)c2ccc3nc(N)c(C)cc3c2)[C@H](C)c2ncccn2)nc1 [Example 375, 2-amino-N-((5-ethoxy-2-pyridinyl)methyl)-3-methyl-N-((1R)-1-(2-pyrimidinyl)ethyl)-6-quinolinecarboxamide] | –
27 | 282 | > 10000 | 0.41 | COc1ccc(CN(C(=O)c2ccc3nc(N)c(C)cc3c2)[C@@H]2CCC[C@H]2O)nn1 [Example 367, 2-amino-N-((1R,2R)-2-hydroxycyclopentyl)-N-((6-methoxypyridazin-3-yl)methyl)-3-methylquinoline-6-carboxamide] | –

Row | Structure (SMILES) | IC50 (HCT116 MTAP null cells; HCT116-MTAP null) [nM] | IC50 (HCT116 WT cells) [nM] | Ki (PRMT5/MEP50) [nM] | IC50 (HCT116 MTAP null cells) [nM]
28 | Cc1cc2cc(C(=O)N(Cc3ccc(C(F)(F)F)cn3)[C@@H](C)c3ncccc3F)ccc2nc1N [Example 386, 2-amino-N-((1S)-1-(3-fluoro-2-pyridinyl)ethyl)-3-methyl-N-((5-(trifluoromethyl)-2-pyridinyl)methyl)-6-quinolinecarboxamide] | – | 3830 | 3.46 | 241
